Entries after “also recorded” stand apart in the source; their conditions may differ. Read-outs that look alike come from different tables or passages of the source. Ends that are not written are not given here.
How the values were obtained:
[1] = tested on: S. mutans; assay: MIC of antimicrobial peptides (Table 4); format: cell-based, Streptococcus mutans
[2] = tested on: MRSA; assay: MIC of antimicrobial peptides (Table 4); format: cell-based, Methicillin-resistant Staphylococcus aureus
[3] = tested on: P. aeruginosa; assay: MIC of antimicrobial peptides (Table 4); format: cell-based, Pseudomonas aeruginosa
[4] = tested on: B. subtilis; assay: MIC of antimicrobial peptides (Table 4); format: cell-based, Bacillus subtilis
[5] = tested on: A. niger; assay: MIC of antimicrobial peptides (Table 4); format: cell-based, Aspergillus niger
[6] = tested on: C. difficile; assay: MIC of antimicrobial peptides (Table 4); format: cell-based, Clostridium difficile
[7] = tested on: A. baumannii; assay: MIC of antimicrobial peptides (Table 4); format: cell-based, Acinetobacter baumannii
[8] = tested on: S. pneumoniae; assay: MIC of antimicrobial peptides (Table 4); format: cell-based, Streptococcus pneumoniae
[9] = tested on: T. rubrum; assay: MIC of antimicrobial peptides (Table 4); format: cell-based, Trichophyton rubrum
[10] = tested on: C. jeikeium; assay: MIC of antimicrobial peptides (Table 4); format: cell-based, Corynebacterium jeikeium
[11] = tested on: bacteria, fungi, and/or yeasts; format: binding
[12] = tested on: S. epidermidis; assay: MIC of antimicrobial peptides (Table 4); format: cell-based, Staphylococcus epidermidis
[13] = tested on: E. coli; assay: MIC of antimicrobial peptides (Table 4); format: cell-based, Escherichia coli
[14] = tested on: C. albicans; assay: MIC of antimicrobial peptides (Table 4); format: cell-based, Candida albicans
[15] = tested on: E. faecalis; assay: MIC of antimicrobial peptides (Table 4); format: cell-based, Enterococcus faecalis
[16] = microorganism(s) listed as target(s) of the targeting peptide, wrapped target lists given cell by cell
[17] = microorganism(s) the targeting peptide binds, as listed in Table 2

FIRKFLQKLHL [K-16]
Organism MIC [1]: S. mutans, 8 μM
Organism MIC [2]: MRSA, 25 μM
Organism MIC [3]: P. aeruginosa, 12.5 μM

RESKLIAMADMIRRRI-NH2 [PF-545]
Organism MIC ([4]; B. subtilis): B. subtilis, 25 μM
Organism MIC [2]: MRSA, 50 μM
Organism MIC [5]: A. niger, 50 μM

KNKKQTDILEKVKEILDKKKKTKSVGQKLY [PF-538]
Organism MIC [6]: C. difficile, 25 μM
Organism MIC [7]: A. baumannii, 25 μM

CGKLLEQKNFFLKTR [PF-521]
Organism MIC [8]: S. pneumoniae, 50 μM

GSVIKKRRKRMAKKKHRKLLKKTRIQRRRAGK [PF-527]
Organism MIC [4]: B. subtilis, 12.5 μM
Organism MIC [9]: T. rubrum, 25 μM
Organism MIC [10]: C. jeikeium, 6.25 μM
Organism MIC [2]: MRSA, 50 μM
Target(s) [11]: S. epidermidis, M. luteus, P. mirabilis,; also recorded: E. coli, P. aeruginosa,; also recorded: MRSA, S. pneumoniae, E. faecalis,; also recorded: C. jeikeium, C. jejuni
Organism MIC [3]: P. aeruginosa, 50 μM
Organism MIC [5]: A. niger, 50 μM
Organism MIC [12]: S. epidermidis, 25 μM

MIRIRSPTKKKLNRNSISDWKSNTSGRFFY [PF-283]
Organism MIC ([4]; B. subtilis): B. subtilis, 50 μM
Organism MIC [9]: T. rubrum, 50 μM
Organism MIC [12]: S. epidermidis, 50 μM

KILKKLFKFVF [K-12]
Organism MIC [1]: S. mutans, 8 μM

GILKKLFTKVF [K-13]
Organism MIC [1]: S. mutans, 16 μM

SKFKVLRKIIIKEYKGELMLSIQKQR [PF-530]
Organism MIC [7]: A. baumannii, 25 μM

LRKFLHKLF [K-14]
Organism MIC [1]: S. mutans, 8 μM

KFSDQIDKGQDALKDKLGDL [PF-525]
Organism MIC [8]: S. pneumoniae, 50 μM
Organism MIC [5]: A. niger, 50 μM

KILKFLFKQVF [K-11]
Organism MIC [1]: S. mutans, 4 μM

YIQFHLNQQPRPKVKKIKIFL-NH2 [PF-531]
Organism MIC ([4]; B. subtilis): B. subtilis, 25 μM
Organism MIC [9]: T. rubrum, 50 μM
Organism MIC [6]: C. difficile, 12.5 μM
Organism MIC [10]: C. jeikeium, 6.25 μM
Organism MIC [7]: A. baumannii, 25 μM
Organism MIC [1]: S. mutans, 12.5 μM
Organism MIC [3]: P. aeruginosa, 50 μM
Organism MIC [5]: A. niger, 25 μM
Organism MIC [12]: S. epidermidis, 50 μM

FIRKFLKKWLL [K-9]
Organism MIC [1]: S. mutans, 4 μM

RRGCTERLRRMARRNAWDLYAEHFY [PF-148]
Organism MIC ([4]; B. subtilis): B. subtilis, 50 μM
Target(s) [11, 16]: S. epidermidis, M. luteus, P. mirabilis,; also recorded: E. coli, P. aeruginosa,; also recorded: C. albicans, MRSA, S. pneumoniae,; also recorded: E. faecalis, C. jeikeium,; also recorded: C. jejuni, M. smegmatis
Organism MIC [5]: A. niger, 50 μM

VMQSLYVKPPLILVTKLAQQN [PF-511]
Organism MIC [8]: S. pneumoniae, 50 μM

SFMPEIQKNTIPTQMK [PF-512]
Organism MIC [8]: S. pneumoniae, 50 μM

VYSFLYVLVIVRKLLSMKKRIERL [PF-499]
Organism MIC ([4]; B. subtilis): B. subtilis, 50 μM

SLQSQLGPCLHDQRH [PF-448]
Organism MIC [8]: S. pneumoniae, 50 μM
Organism MIC [5]: A. niger, 25 μM

VYRKRKSILKIYAKLKGWH [K-2]
Organism MIC [1]: S. mutans, 12.5 μM

VLPFPAIPLSRRRACVAAPRPRSRQRAS [PF-168]
Organism MIC [9]: T. rubrum, 50 μM
Organism MIC [2]: MRSA, 50 μM
Target(s) [11, 16]: yeast cells; also recorded: S. epidermidis, M. luteus, E. coli,; also recorded: C. albicans, MRSA, C. jeikeium,; also recorded: C. jejuni
Organism MIC [5]: A. niger, 50 μM

WSRVPGHSDTGWKVWHRW-NH2 [PF-547]
Organism MIC ([4]; B. subtilis): B. subtilis, 25 μM
Organism MIC [9]: T. rubrum, 25 μM
Organism MIC [1]: S. mutans, 12.5 μM

FESKILNASKELDKEKKVNTALSFNSHQDFAKAYQNGKI [PF-606]
Organism MIC [1]: S. mutans, 50 μM
Organism MIC [2]: MRSA, 50 μM
Organism MIC [13]: E. coli, 50 μM
Organism MIC [8]: S. pneumoniae, 50 μM
Organism MIC [12]: S. epidermidis, 50 μM

GIVLIGLKLIPLLANVLR [PF-322]
Organism MIC ([4]; B. subtilis): B. subtilis, 50 μM

NYAVVSHT [PF-209]
Organism MIC [2]: MRSA, 50 μM

KLFKFLRKHLL [K-10]
Organism MIC [1]: S. mutans, 4 μM

LGLTAGVAYAAQPTNQPTNQPTNQPTNQPTNQPTNQPRW-NH2 [PF-520]
Organism MIC [8]: S. pneumoniae, 50 μM

LVLRICTDLFTFIKWTIKQRKS [PF-497]
Organism MIC ([4]; B. subtilis): B. subtilis, 50 μM

LRKNLRWLF [K-15]
Organism MIC [1]: S. mutans, 4 μM

KKFKKFKVLKIL [K-18]
Organism MIC [1]: S. mutans, 16 μM

NYRLVNAIFSKIFKKKFIKF [K-7]
Organism MIC [1]: S. mutans, 12.5 μM

MKRRRCNWCGKLFYLEEKSKEAYCCKECRKKAKKVKK [PF-307]
Organism MIC ([4]; B. subtilis): B. subtilis, 50 μM
Organism MIC [9]: T. rubrum, 50 μM
Organism MIC [14]: C. albicans, 50 μM

LSEMERRRLRKRA-NH2 [PF-529]
Organism MIC [8]: S. pneumoniae, 50 μM
Organism MIC [5]: A. niger, 50 μM

LLKLLKLKKLKF [K-19]
Organism MIC [1]: S. mutans, 16 μM

PDAPRTCYHKPILAALSRIVVTDR [PF-524]
Organism MIC [8]: S. pneumoniae, 50 μM

GLGRVIGRLIKQIIWRR [K-1]
Organism MIC [1]: S. mutans, 25 μM

GWLKMFKKIIGKFGKF [K-21]
Organism MIC [1]: S. mutans, 8 μM

FQKPFTGEEVEDFQDDDEIPTII [PF-437]
Organism MIC [8]: S. pneumoniae, 50 μM

FELVDWLETNLGKILKSKSA-NH2 [PF-522]
Organism MIC [6]: C. difficile, 25 μM

LSLATFAKIFMTRSNWSLKRFNRL [PF-278]
Organism MIC [9]: T. rubrum, 50 μM
Organism MIC [14]: C. albicans, 50 μM
Organism MIC [12]: S. epidermidis, 50 μM

FLKFLKKFFKKLKY [K-20]
Organism MIC [1]: S. mutans, 8 μM

GIFKKFVKILYKVQKL [K-22]
Organism MIC [1]: S. mutans, 8 μM

KILKFLFKKVF [K-8]
Organism MIC [1]: S. mutans, 4 μM

KFQGEFTNIGQSYIVSASHMSTSLNTGK [PF-583]
Organism MIC [2]: MRSA, 50 μM
Target(s) [11, 16]: C. albicans hyphae
Organism MIC [12]: S. epidermidis, 50 μM

MGIIAGIIKFIKGLIEKFTGK [PF-006]
Organism MIC ([4]; B. subtilis): B. subtilis, 25 μM
Organism MIC [7]: A. baumannii, 50 μM
Organism MIC [2]: MRSA, 50 μM
Target(s) [11, 16]: S. epidermidis, M. luteus, E. coli,; also recorded: P. aeruginosa, MRSA, E. faecalis,; also recorded: C. jeikeium, C. jejuni

MRFGSLALVAYDSAIKHSWPRPSSVRRLRM [PF-672]
Organism MIC ([4]; B. subtilis): B. subtilis, 0.78 μM
Organism MIC [9]: T. rubrum, 0.78 μM
Organism MIC [15]: E. faecalis, 3.13 μM
Organism MIC [2]: MRSA, 1.56 μM
Organism MIC [5]: A. niger, 3 μM
Organism MIC [14]: C. albicans, 1.56 μM
Organism MIC [12]: S. epidermidis, 0.39 μM

TKKIELKRFVDAFVKKSYENYILERELKKLIKAINEELPTK [PF-600]
Organism MIC [13]: E. coli, 50 μM
Organism MIC [8]: S. pneumoniae, 50 μM

1T-168 (ELHRIMSTEKIGAVTKMNFDTAPIMSILPIDIYPKEVGIGS)
Target(s) [11, 17]: A. naeslundii, F. nucleatum, P. gingivalis,; also recorded: S. epidermidis, S. gordonii,; also recorded: S. mitis, S. mutans, S. oralis,; also recorded: S. salivarious, S. sanguinis

1T-46 (FSFKQRVMFRKEVERLR)
Target(s) [11, 17]: S. aureus, S. epidermidis, C. jeikeium,; also recorded: C. xerosis, C. striatum,; also recorded: P. aeruginosa

1T-269 (PLYVAAVEKINTAKKH)
Target(s) [11, 16]: F. nucleatum, S. mutans, S. oralis,; also recorded: S. sanguinis

1T-74 (DIDWGRKISCAAGVAYGAIDGCATTV)
Target(s) [11, 17]: S. pneumoniae

FTRKFLKFLHL [K-17]
Organism MIC [1]: S. mutans, 8 μM

PF-097 (QPTQGEQGTRPRRPTPMRGLLI)
Target(s) [11, 16]: C. jeikeium

1T-215 (VCFKDISVFLSPFRGQEVLFCGKAKHSLIYVIGT)
Target(s) [11, 17]: S. sanguinis

1T-291 (DMKIIKLYIKILSFLFIKYCNKKLNSVKLKA)
Target(s) [11, 16]: A. naeslundii, F. nucleatum, P. gingivalis,; also recorded: T. denticola, S. mitis,; also recorded: S. mutans, S. oralis

PF-S003 (ALALLKQDLLNFEGRGRIITSTYLQFNEGCVP)
Target(s) [11, 16]: yeast and hyphal forms
Target(s) ([11]; microorganism(s) that the targeting peptide binds, as listed in Table 2): S. epidermidis, M. luteus, P. mirabilis,; also recorded: E. coli, P. aeruginosa,; also recorded: C. albicans, MRSA, S. pneumoniae,; also recorded: E. faecalis, C. jeikeium,; also recorded: C. jejuni, M. smegmatis

ASKQASKQASKQASKQASKQASRSLKNHLL [PF-523]
Organism MIC [8]: S. pneumoniae, 50 μM

1T-53 (SDILAEMFEKGELQTLVKDAAAKANA)
Target(s) [11, 17]: P. aeruginosa
